Here are results for five molecules from patent publication US8293786B2 (Alltranz Inc., priority 2007, dated 2012).

Entries after “also recorded” stand apart in the source; their conditions may differ. Counter-ions that a name gives are not always drawn.

The subject of data set [1] is human abdominal skin. Briefly: In vitro human skin permeation and skin disposition, flow-through diffusion cells (Example 1). Conditions: for found in the skin disposition (tissue) samples: Example 1; for permeation through the skin: both the PG donor solution and gel formulation; for 36 h skin conc.: Table 14, in propylene glycol. It counts as in vitro ADME. The method, then: Flow through diffusion cells were used for the permeation studies. HEPES-buffered Hanks' balanced salts containing 40% (polyethylene glycol) PEG 400 with gentamicin was used for the receiver compartment. Donor solution was comprised of either 100% propylene glycol (PG) solution or a rubbed in gel formulation. […] Drug accumulation in the skin after a 24 or 36 h diffusion experiment was determined as μmol/g wet tissue weight.
(§1) The skin samples used in the following experiments were obtained from abdominal reduction surgery and dermatomed to a thickness of approximately 200 μm. The skin samples used herein were frozen at −20° C. for less than six months.
1 L of receiver fluid was prepared by measuring 1 L of nanopure water into a graduated cylinder. 90% of the water was added to an Erlenmeyer flask. Hanks' salts (1 bottle) were added to the water along with 5.96 g of HEPES and 0.35 g of sodium bicarbonate. The pH of the solution was adjusted with 1 N sodium hydroxide solution to pH 7.4. The remaining water was added and the receiver fluid was filtered through a 0.2μ filter (Millipore, Billerica, Mass.). 50 mg of gentamicin was added to the filtered receiver fluid and 400 mL of the receiver fluid was removed and replaced with 400 mL of PEG 400.
Two different formulations were used for charging the donor compartment. Drugs were made up in either 100% PG or a gel formulation. For the PG solution, approximately 50-120 mg of the appropriate drug was weighed into a glass silanized culture tube. The gel formulation resulted from the mixing of absolute ethanol, nanopure water, IPM, Carbopol® 980, 0.1 N aqueous sodium hydroxide solution and the respective drug.
Dermatomed skin harvested from abdominoplasty, stored at −20° C., was used for the experiments. A PermeGear flow-through (In-Line, Riegelsville, Pa.) diffusion cell system was used for the skin permeation studies.
Diffusion cells were kept at 32° C. with a circulating water bath. Human epidermal skin was arranged in the diffusion cell with stratum corneum (upper layer of skin) facing the donor compartment. Permeation area of the skin was 0.95 cm^2. Data was collected from a human skin donor with three to four diffusion cells per treatment.
Receiver solution was HEPES-buffered Hanks' balanced salts with gentamicin containing 40% PEG 400 at a pH of 7.4 and flow rate was adjusted to 0.8 mL/h. Each cell was charged with 0.050 mL of the respective drug formulation (donor solution) or with 0.035 mL of gel formulation which was rubbed into the skin for 15 sec with a Teflon coated rod. The formulation was applied to ensure complete coverage. Diffusion cells were covered with a cap for the duration of the study.
Samples were collected into scintillation vials in 3 h increments for either 24 h or 36 h. All the samples were stored at 4° C. until extracted. An aliquot (0.5 mL) of the diffusion sample was placed into a silanized HPLC vial and 0.5 mL of acetonitrile was added to the sample, capped and vortexed.
At the end of the experiment, the skin tissue was removed from the diffusion cell, rinsed with nanopure water, and blotted dry with a paper towel. The skin was tape stripped twice using book tape (Scotch™, 3M, St. Paul, Minn.) to remove drug formulation adhering to the tissue surface. The area of skin in contact with the drug was cut out, chopped up and placed in a pre-weighed scintillation vial. Ten mL of acetonitrile was added to the vial and drug was extracted from the skin by shaking at room temperature overnight. The following day a 0.1 mL aliquot was removed and diluted with an additional 0.9 mL of acetonitrile. The diluted sample was added to the silanized HPLC vial for analysis.
At the end of the experiment, a 0.01 mL aliquot of the PG donor solution was removed and added to a scintillation vial containing 10 mL of acetonitrile. The vials were vortexed and then sonicated for 15 min. An aliquot of 1 mL was removed and transferred into a silanized HPLC vial for analysis.

In data set [2] the test system is human abdominal skin. The data set is described as follows: In vitro human skin permeation and skin disposition, flow-through diffusion cells (Examples 2, 2A, 2B). It counts as in vitro ADME. Conditions: for 24 h skin conc / 24 h cumulative amt / Flux / Lag time / Flux enhancement: 40% aqueous PEG 400 receiver fluid; for Flux enhancement: total cannabidiol versus cannabidiol. The procedure:
Flow through diffusion cells were used for the permeation studies. HEPES-buffered Hanks' balanced salts containing 40% PEG 400 with gentamicin or 40% aqueous PEG 400 with gentamicin were used for the receiver compartment. Donor solution was comprised of 90:8:2 PG:H2O:IPM solution or gel formulation. […] Drug accumulation in the skin after a 24, 30 or 42 h diffusion experiment was determined as μmol/g wet tissue weight.
as §1
One (1) L of receiver fluid was prepared by measuring 1 L of nanopure water into a graduated cylinder. 90% of the water was added to an Erlenmeyer flask. Hanks' salts (1 bottle) were added to the water along with 5.96 g of HEPES and 0.35 g of sodium bicarbonate. The pH of the solution was adjusted with 1 N sodium hydroxide solution to pH 7.4. The remaining water was added and the receiver fluid was filtered through a 0.2μ filter (Millipore, Billerica, Mass.). Fifty (50) mg of gentamicin was added to the filtered receiver fluid and 400 mL of the receiver fluid was removed and replaced with 400 mL of PEG 400.
The receiver fluid was prepared by measuring 600 mL of nanopure H2O into a graduated cylinder. The H2O was filtered through a 0.2μ filter (Millipore, Billerica, Mass.). Fifty (50) mg of gentamicin was added to the filtered H2O and 400 mL of PEG 400 was added.
The prodrugs were made up in a solution of 45:4:1 PG:H2O:IPM. For this solution, the appropriate amount of drug was weighed into a glass silanized culture tube and IPM was added, the 50 μL of PG to coat the drug, then an additional 247 μL PG was added and the donor solution was vortexed again. Finally 26 μL of water was added. The gel formulation resulted from the mixing of absolute ethanol, nanopure water, IPM, Carbopol® 980, 0.1 N sodium hydroxide solution and the respective drug.
The gel formulation was comprised of absolute ethanol, nanopure water, IPM, Carbopol® 980, 0.1 sodium hydroxide solution and respective drug. The anhydrous gel was comprised of absolute ethanol, PEG monoethyl ether 550, Klucel® hydroxypropylcellulose, and respective drug.
Dermatomed skin harvested from abdominoplasty, stored at −20° C., was used for the experiments. A PermeGear flow-through (In-Line, Hellertown, Pa.) diffusion cell system was used for the skin permeation studies.
Diffusion cells were kept at 32° C. with a circulating water bath. Human epidermal skin was arranged in the diffusion cell with stratum corneum (upper layer of skin) facing the donor compartment. The permeation area of the skin was 0.95 cm^2. The data was collected from a human skin donor with three diffusion cells per treatment.
The receiver solution was HEPES-buffered Hanks' balanced salts with gentamicin containing 40% PEG 400 at a pH of 7.4 or 40% aqueous PEG 400 and flow rate was adjusted to 0.8 mL/h. Each cell was charged with 0.10 mL of the respective drug formulation (donor solution) or 50 μL of gel formulation which was rubbed into the skin for 15 sec with a Teflon coated rod. The formulation was applied to ensure complete coverage. […]. Diffusion cells were covered with a stopper or cap for the duration of the study.
Samples were collected into scintillation vials in 3 h increments for either 24, 30, or 42 h. All the samples were stored at 4° C. until extracted. An aliquot (0.5 mL) of the diffusion sample was placed into a silanized HPLC vial and 0.5 mL of acetonitrile was added to the sample, capped and vortexed.
At the end of the experiment, the skin tissue was removed from the diffusion cell, rinsed with nanopure water, and blotted dry with a paper towel. The skin was tape stripped twice using book tape (Scotch™, 3M, St. Paul, Minn.) to remove drug formulation adhering to the tissue surface.

Setting [3] is: Table 21, gel formulation, CBD from applied prodrug.
[4] abbreviates: Table 21, gel formulation, as applied compound (CBD or intact prodrug).
The mark [5] stands for this setting: Table 21, gel formulation, prodrug applied, as total cannabidiol equivalents.
Where [6] appears, read: in an anhydrous gel formulation.
[7] abbreviates: Table 19, gel formulation, CBD from applied prodrug.
Setting [8] is: Table 19, gel formulation, as applied compound (CBD or intact prodrug).
Setting [9] is: Table 19, gel formulation, prodrug applied, as total cannabidiol equivalents.
Setting [10] is: Table 23, gel formulation, CBD from applied prodrug.

On to `C=C(C)C1CCC(C)=CC1c1c(OC(=O)NCC)cc(CCCCC)cc1OC(=O)NCC` (centres unmarked) [ALL00104], for which, in the data set with human abdominal skin [1], the “found in the skin disposition (tissue) samples” value is “Some intact prodrug was found in the skin samples but very little cannabidiol was detected” and the “permeation through the skin” value was “did not permeate (or were below LOD)”.
With `C=C(C)C1CCC(C)=CC1c1c(OC(=O)CCOCC)cc(CCCCC)cc1OC(=O)CCOCC` (centres unmarked) [ALL00103], in the data set on human abdominal skin [1], the “found in the skin disposition (tissue) samples” value was “Some intact prodrug was found in the skin samples but very little cannabidiol was detected”. In addition, the “36 h skin conc.” value with human abdominal skin [1] (as applied compound (CBD or intact prodrug)) came out at 9.7 ± 1.0 µmol/g; in the data set with human abdominal skin [1] (prodrug applied, as total CBD equivalents), 9.7 ± 1.0 µmol/g. In the data set with human abdominal skin [1], the “permeation through the skin” value was “did not permeate (or were below LOD)”.
Regarding `C=C(C)C1CCC(C)=CC1c1c(O)cc(CCCCC)cc1OC(=O)CCN(C)C` (centres unmarked) [ALL00150, CBD 3-(dimethylamino)propionate], the “24 h skin conc” value in the data set with human abdominal skin [2] (setting [3]) was 7.9 ± 2.3 µmol/g; in the data set on human abdominal skin [2] (setting [4]), 47.7 ± 3.0 µmol/g; in the data set on human abdominal skin [2] (setting [5]), 55.6 ± 5.3 µmol/g; in the data set on human abdominal skin [2] (Table 22, anhydrous gel formulation, CBD from applied prodrug) it was 1.1 ± 0.8 µmol/g; in the data set with human abdominal skin [2] (Table 22, anhydrous gel formulation, as applied compound (CBD or intact prodrug)), 5.6 ± 3.1 µmol/g; in the data set with human abdominal skin [2] (Table 22, anhydrous gel formulation, prodrug applied, as total cannabidiol equivalents) it was 6.7 ± 3.8 µmol/g. The “concentrations in the skin, anhydrous gel formulation compared to the ethanol based gel formulation” value in the data set on human abdominal skin [2] (anhydrous gel versus ethanol based gel) was “much lower”. Also, the “detected in the skin as” value in the data set with human abdominal skin [2] (setting [6]) was “ALL00150 and cannabidiol”; in the data set with human abdominal skin [2] (in gel formulation) it was “primarily ALL00150 with a small amount of cannabidiol”. Also, in the data set with human abdominal skin [2] (setting [6]), the “permeation through the skin” value is “did not permeate through the skin”. In addition, the “total skin concentrations compared to cannabidiol” value with human abdominal skin [2] (setting [6]) and with human abdominal skin [2] (in gel formulation) was “higher” each time. For the same molecule, the “permeated through the skin as” value with human abdominal skin [2] (in gel formulation) is recorded as “did not permeate through the skin”.
`C=C(C)[C@@H]1CCC(C)=C[C@H]1c1c(O)cc(CCCCC)cc1OC=O` [ALL00146, CBD Formate]: the “24 h cumulative amt” value in the data set on human abdominal skin [2] (setting [7]) is 10.7 ± 0.5 nmol; in the data set on human abdominal skin [2] (setting [8]) it was 4.0 ± 0.0 nmol; in the data set on human abdominal skin [2] (setting [9]) it was 12.7 ± 2.3 nmol; with human abdominal skin [2] (setting [3]), 2.7 ± 1.4 nmol; in the data set on human abdominal skin [2] (setting [5]), 2.7 ± 1.4 nmol; in the data set on human abdominal skin [2] (setting [10]), 5.9 nmol. Besides, the “24 h skin conc” value is 0.8 ± 0.1 µmol/g with human abdominal skin [2] (setting [7]); 3.3 ± 0.5 µmol/g in the data set on human abdominal skin [2] (setting [8]); 4.1 ± 0.4 µmol/g in the data set with human abdominal skin [2] (setting [9]); 3.7 ± 2.1 µmol/g in the data set on human abdominal skin [2] (setting [3]); 16.0 ± 9.8 µmol/g in the data set on human abdominal skin [2] (setting [4]); 19.7 ± 11.9 µmol/g in the data set with human abdominal skin [2] (setting [5]). In addition, the Flux with human abdominal skin [2] (setting [7]) worked out at 0.8 ± 0.1 nmol/cm^2/h; in the data set on human abdominal skin [2] (setting [8]), 0.3 ± 0.0 nmol/cm^2/h; with human abdominal skin [2] (setting [9]), 0.9 ± 0.1 nmol/cm^2/h; in the data set with human abdominal skin [2] (setting [3]) it was 0.2 ± 0.1 nmol/cm^2/h; in the data set with human abdominal skin [2] (setting [5]), 0.2 ± 0.1 nmol/cm^2/h; with human abdominal skin [2] (setting [10]) it was 0.26 nmol/cm^2/h. Moreover, the Lag time was determined as 9.1 ± 0.9 h in the data set on human abdominal skin [2] (setting [7]); 7.0 ± 0.0 h in the data set on human abdominal skin [2] (setting [8]); 8.9 ± 1.1 h in the data set on human abdominal skin [2] (setting [9]); 9.8 ± 3.7 h with human abdominal skin [2] (setting [3]); 9.8 ± 3.7 h in the data set with human abdominal skin [2] (setting [5]); 0.4 h with human abdominal skin [2] (setting [10]). The Flux enhancement with human abdominal skin [2] (Table 19, gel formulation) was 1.09; in the data set with human abdominal skin [2] (Table 21, gel formulation) it was 0.53. The “detected in the skin as” value with human abdominal skin [2] (in gel formulation) is “intact prodrug and cannabidiol; also recorded: small amount of cannabidiol with the remaining being prodrug”. Moreover, the “flux compared to cannabidiol” value with human abdominal skin [2] (in gel formulation) is listed as “did slightly increase the flux; also recorded: didn't increase the flux”.
With `C=C(C)C1CCC(C)=CC1c1c(O)cc(CCCCC)cc1OC(=O)CN(C)C` (centres unmarked) [ALL00148, CBD N,N-dimethylglycinate], the “24 h skin conc” value in the data set on human abdominal skin [2] (setting [7]) was 2.4 ± 2.1 µmol/g. Further, in the data set with human abdominal skin [2] (setting [8]), the “24 h cumulative amt” value was found to be 8.0 ± 1.8 nmol, the “24 h skin conc” value stood at 20.8 ± 21.1 µmol/g, the Flux is listed as 0.5 ± 0.1 nmol/cm^2/h and the Lag time is listed as 7.6 ± 2.1 h. In addition, in the data set with human abdominal skin [2] (setting [9]), the “24 h cumulative amt” value is given as 8.0 ± 1.8 nmol, the “24 h skin conc” value turned out to be 23.2 ± 23.2 µmol/g, the Flux is recorded as 0.5 ± 0.1 nmol/cm^2/h and the Lag time is given as 7.6 ± 2.1 h. Also, the Flux enhancement in the data set with human abdominal skin [2] (Table 19, gel formulation) is listed as 0.63. For the same molecule, in the data set with human abdominal skin [2] (in gel formulation), the “detected in the skin as” value was “mostly intact prodrug and small amounts of cannabidiol”; the “flux compared to cannabidiol” value is recorded as “did not increase the flux”; the “lag time compared to cannabidiol” value is reported as “similar”; the “permeated through the skin as” value is “intact prodrug only”. Moreover, in the data set on human abdominal skin [2] (in gel formulation), the “total skin concentrations compared to cannabidiol” value is recorded as “higher”.
